Source: PubChem BioAssay (NCI)
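Results reflect a 48-hour exposure of cells in 96-well plates to compound at five concentrations. Here, GI50 denotes the concentration required for 50% inhibition of growth. TGI marks complete inhibition of growth.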

What was measured:
Assay in all cases: NCI-60 cell line screen, 48 h
SW-620 colon = system: SW-620 colon
OVCAR-5 ovarian = system: OVCAR-5 ovarian
ACHN renal = system: ACHN renal
MDA-MB-231 breast = system: MDA-MB-231 breast
RXF 393 renal = system: RXF 393 renal
CCRF-CEM leukemia = system: CCRF-CEM leukemia
NCI-H226 lung = system: NCI-H226 lung
SF-268 CNS = system: SF-268 CNS
U251 CNS = system: U251 CNS
HS 578T breast = system: HS 578T breast
NCI-H522 lung = system: NCI-H522 lung
SK-OV-3 ovarian = system: SK-OV-3 ovarian
SN12C renal = system: SN12C renal
HCC-2998 colon = system: HCC-2998 colon
HCT-116 colon = system: HCT-116 colon
HOP-92 NSCLC = system: HOP-92 NSCLC
SK-MEL-2 melanoma = system: SK-MEL-2 melanoma
HT29 colon = system: HT29 colon
DU-145 prostate = system: DU-145 prostate
MDA-MB-435 = system: MDA-MB-435
NCI/ADR-RES ovarian = system: NCI/ADR-RES ovarian
SNB-19 CNS = system: SNB-19 CNS
HOP-62 NSCLC = system: HOP-62 NSCLC
OVCAR-4 ovarian = system: OVCAR-4 ovarian
BT-549 breast = system: BT-549 breast
UACC-257 melanoma = system: UACC-257 melanoma
OVCAR-3 ovarian = system: OVCAR-3 ovarian
SK-MEL-5 melanoma = system: SK-MEL-5 melanoma
KM12 colon = system: KM12 colon
HCT-15 colon = system: HCT-15 colon
CAKI-1 renal = system: CAKI-1 renal
IGROV1 ovarian = system: IGROV1 ovarian
SK-MEL-28 melanoma = system: SK-MEL-28 melanoma
SF-295 CNS = system: SF-295 CNS
NCI-H23 lung = system: NCI-H23 lung
NCI-H460 lung = system: NCI-H460 lung
SF-539 CNS = system: SF-539 CNS
HL-60(TB) leukemia = system: HL-60(TB) leukemia
RPMI-8226 leukemia = system: RPMI-8226 leukemia
SNB-75 CNS = system: SNB-75 CNS
A549 NSCLC = system: A549 NSCLC
TK-10 renal = system: TK-10 renal
UACC-62 melanoma = system: UACC-62 melanoma
PC-3 prostate = system: PC-3 prostate
UO-31 renal = system: UO-31 renal
EKVX NSCLC = system: EKVX NSCLC
A498 renal = system: A498 renal
MALME-3M melanoma = system: MALME-3M melanoma
M14 melanoma = system: M14 melanoma
786-0 renal = system: 786-0 renal

Compound: Cn1cc(-c2csc(-c3c[nH]c4ccccc34)n2)c2cnccc21
- GI50 (SW-620 colon): 1.98 µM
- TGI (SW-620 colon): 3.69 µM
- GI50 (OVCAR-5 ovarian): 2.62 µM
- TGI (OVCAR-5 ovarian): 5.52 µM
- GI50 (ACHN renal): 1.93 µM
- TGI (ACHN renal): 3.77 µM
- GI50 (MDA-MB-231 breast): 1.67 µM
- TGI (MDA-MB-231 breast): 3.22 µM
- GI50 (RXF 393 renal): 1.63 µM
- TGI (RXF 393 renal): 3.11 µM
- GI50 (CCRF-CEM leukemia): 2.4 µM
- TGI (CCRF-CEM leukemia): 6.42 µM
- GI50 (NCI-H226 lung): 17.1 µM
- TGI (NCI-H226 lung): 45.4 µM
- GI50 (SF-268 CNS): 1.97 µM
- TGI (SF-268 CNS): 3.93 µM
- GI50 (U251 CNS): 1.95 µM
- TGI (U251 CNS): 3.72 µM
- GI50 (HS 578T breast): 2.21 µM
- TGI (HS 578T breast): 4.72 µM
- GI50 (NCI-H522 lung): 2.02 µM
- TGI (NCI-H522 lung): 3.91 µM
- GI50 (SK-OV-3 ovarian): 1.9 µM
- TGI (SK-OV-3 ovarian): 3.72 µM
- GI50 (SN12C renal): 1.74 µM
- TGI (SN12C renal): 3.31 µM
- GI50 (HCC-2998 colon): 2.01 µM
- TGI (HCC-2998 colon): 3.61 µM
- GI50 (HCT-116 colon): 1.73 µM
- TGI (HCT-116 colon): 3.22 µM
- GI50 (HOP-92 NSCLC): 1.52 µM
- TGI (HOP-92 NSCLC): 3.28 µM
- GI50 (SK-MEL-2 melanoma): 2.1 µM
- TGI (SK-MEL-2 melanoma): 3.81 µM
- GI50 (HT29 colon): 2.01 µM
- TGI (HT29 colon): 4.26 µM
- GI50 (DU-145 prostate): 2.24 µM
- TGI (DU-145 prostate): 5.65 µM
- GI50 (MDA-MB-435): 1.87 µM
- TGI (MDA-MB-435): 3.43 µM
- GI50 (NCI/ADR-RES ovarian): 2.4 µM
- TGI (NCI/ADR-RES ovarian): 5.44 µM
- GI50 (SNB-19 CNS): 2.07 µM
- TGI (SNB-19 CNS): 4.11 µM
- GI50 (HOP-62 NSCLC): 1.79 µM
- TGI (HOP-62 NSCLC): 3.45 µM
- GI50 (OVCAR-4 ovarian): 2.3 µM
- TGI (OVCAR-4 ovarian): 6.52 µM
- GI50 (BT-549 breast): 1.78 µM
- TGI (BT-549 breast): 3.59 µM
- GI50 (UACC-257 melanoma): 2 µM
- TGI (UACC-257 melanoma): 3.72 µM
- GI50 (OVCAR-3 ovarian): 1.96 µM
- TGI (OVCAR-3 ovarian): 3.56 µM
- GI50 (SK-MEL-5 melanoma): 1.76 µM
- TGI (SK-MEL-5 melanoma): 3.18 µM
- GI50 (KM12 colon): 1.65 µM
- TGI (KM12 colon): 3.41 µM
- GI50 (HCT-15 colon): 1.79 µM
- TGI (HCT-15 colon): 3.6 µM
- GI50 (CAKI-1 renal): 2.08 µM
- TGI (CAKI-1 renal): 4.71 µM
- GI50 (IGROV1 ovarian): 1.73 µM
- TGI (IGROV1 ovarian): 3.55 µM
- GI50 (SK-MEL-28 melanoma): 1.8 µM
- TGI (SK-MEL-28 melanoma): 3.25 µM
- GI50 (SF-295 CNS): 1.81 µM
- TGI (SF-295 CNS): 3.37 µM
- GI50 (NCI-H23 lung): 1.77 µM
- TGI (NCI-H23 lung): 3.97 µM
- GI50 (NCI-H460 lung): 1.85 µM
- TGI (NCI-H460 lung): 3.61 µM
- GI50 (SF-539 CNS): 1.79 µM
- TGI (SF-539 CNS): 3.29 µM
- GI50 (HL-60(TB) leukemia): 2.17 µM
- TGI (HL-60(TB) leukemia): 4.77 µM
- GI50 (RPMI-8226 leukemia): 2.14 µM
- TGI (RPMI-8226 leukemia): 5 µM
- GI50 (SNB-75 CNS): 12.9 µM
- TGI (SNB-75 CNS): 26.2 µM
- GI50 (A549 NSCLC): 2.47 µM
- TGI (A549 NSCLC): 5.88 µM
- GI50 (TK-10 renal): 2.74 µM
- TGI (TK-10 renal): 5.1 µM
- GI50 (UACC-62 melanoma): 1.82 µM
- TGI (UACC-62 melanoma): 3.32 µM
- GI50 (PC-3 prostate): 2.4 µM
- TGI (PC-3 prostate): 6.31 µM
- GI50 (UO-31 renal): 1.64 µM
- TGI (UO-31 renal): 3.35 µM
- GI50 (EKVX NSCLC): 1.92 µM
- TGI (EKVX NSCLC): 4.61 µM
- GI50 (A498 renal): 1.89 µM
- TGI (A498 renal): 3.58 µM
- GI50 (MALME-3M melanoma): 1.94 µM
- TGI (MALME-3M melanoma): 3.62 µM
- GI50 (M14 melanoma): 1.84 µM
- TGI (M14 melanoma): 3.46 µM
- GI50 (786-0 renal): 1.9 µM
- TGI (786-0 renal): 3.44 µM
